The values that follow come from patent US10428104B2, “Substituted nucleoside derivatives useful as anticancer agents” (Pfizer Inc., priority 2015, dated 2019).

Chain of PRMT5/MEP50 protein complex (O14744 other isoform, or with tags, fused parts or gaps): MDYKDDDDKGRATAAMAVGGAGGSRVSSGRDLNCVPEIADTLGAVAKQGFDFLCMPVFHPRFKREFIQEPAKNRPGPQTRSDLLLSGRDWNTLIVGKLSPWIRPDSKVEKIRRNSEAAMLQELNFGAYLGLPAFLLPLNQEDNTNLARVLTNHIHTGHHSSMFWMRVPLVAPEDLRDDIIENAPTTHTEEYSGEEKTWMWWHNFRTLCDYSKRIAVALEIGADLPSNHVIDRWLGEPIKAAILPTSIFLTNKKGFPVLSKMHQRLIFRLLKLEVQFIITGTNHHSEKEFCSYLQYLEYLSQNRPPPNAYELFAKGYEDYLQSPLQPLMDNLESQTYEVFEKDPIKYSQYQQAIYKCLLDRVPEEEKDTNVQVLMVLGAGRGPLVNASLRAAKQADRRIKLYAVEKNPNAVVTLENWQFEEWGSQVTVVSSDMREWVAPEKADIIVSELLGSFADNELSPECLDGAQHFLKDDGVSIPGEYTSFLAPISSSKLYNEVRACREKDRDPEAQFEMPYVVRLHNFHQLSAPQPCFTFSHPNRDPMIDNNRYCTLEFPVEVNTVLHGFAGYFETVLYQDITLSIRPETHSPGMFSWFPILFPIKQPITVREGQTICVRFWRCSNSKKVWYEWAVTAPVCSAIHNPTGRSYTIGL
Chain of PRMT5/MEP50 protein complex (Q9BQA1 whole entry partner): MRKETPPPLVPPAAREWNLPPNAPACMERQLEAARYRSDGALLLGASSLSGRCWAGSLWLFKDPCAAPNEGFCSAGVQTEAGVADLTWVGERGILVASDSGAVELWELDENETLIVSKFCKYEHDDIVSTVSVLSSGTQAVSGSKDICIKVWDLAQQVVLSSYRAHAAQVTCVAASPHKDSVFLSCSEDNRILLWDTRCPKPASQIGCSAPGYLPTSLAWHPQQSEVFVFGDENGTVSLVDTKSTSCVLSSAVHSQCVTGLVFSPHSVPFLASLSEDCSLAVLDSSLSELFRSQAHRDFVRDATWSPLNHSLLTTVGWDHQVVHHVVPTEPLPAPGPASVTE

In this experiment the target is PRMT5/MEP50 protein complex (Homo sapiens (Human), UniProt O14744). Description: PRMT5 biochemical assay (3H-SAM methylation of H4(1-21) peptide, filter plate scintillation counting). The note with it: PRMT5 enzyme inhibition; 10 nM PRMT5/MEP50 complex, 200 nM H4(1-21) peptide, 1 uM SAM, 25 minute incubation at room temperature. As to the method:
Following dilution, 1 ul was added to an empty 96-well microtiter plate. PRMT5/MEP50 protein complex was combined with H4(1-21) peptide ([…]) in PRMT5 assay buffer (50 mM Tris pH 8.5, 50 mM NaCl, 5 mM MgCl2, 1 mM EDTA, 1 mM TCEP) and 44 ul was added to the microtiter plate containing compound. S-Adenosyl-L-methionine (SAM) was prepared by combining ^3H labelled SAM with unlabelled SAM in PRMT5 assay buffer such that the final SAM concentration was 10 uM and the specific activity was 0.2 uCi/ul. The reaction was initiated by adding 5 ul of SAM stock to the microtiter plate. The final reaction conditions were 10 nM PRMT5/MEP50 complex, 200 nM peptide and 1 uM SAM. Following a 25 minute incubation at room temperature, the reaction was stopped with the addition of 100 uL of 20% TCA. The 3H-peptide product was captured using a 96-well filter plate (MSIPN4B, Millipore) and washed 5 times with PBS buffer. Scintillation fluid (100 ul) was added to the dried filter plate and counted in a liquid scintillation counter. IC50 values were determined by fitting the data to the standard 4-parameter dose response equation using Pfizer proprietary software.
In the final construct PRMT5 ORF was under control of polyhedrin promoter (polH) while MEP50 ORF was under control of p10 promoter.
Viruses were generated using standard Bac-to-Bac viral generation protocols (Life Technologies) and amplified to high-titer passage two (P2) stocks. Protein over expression was conducted in exponentially growing Sf21 cells infected at 2×106 with P2 viral stock at MOI=1 of PRMT5-Mep50 dual construct virus and Mep50 construct virus at 1:1 ratio. The co-expression protocol was used to supplement additional Mep50 for FlagPRMT5-Mep50 heterodimer formation. Cells were harvested at 72 h post infection by centrifugation and frozen pellet was stored at −80° C.
FlagPRMT5-Mep50 complex was purified from cell lysate using Flag affinity chromatography. Cell were lyzed in 50 mM Tris 7.5, 200 mM NaCl, 10% glycerol, 0.25 mM TCEP supplemented with EDTA-free protease inhibitor cocktail (Roche). 1.5 ml of lysis buffer was added per 1 g of frozen pellet. The clarified lysate was obtained by centrifugation of cell lysate at 10,000 g for 1 h at 4 C. 5 ml of Anti-FLAG M2 Agarose (Sigma) […] was added to the clarified lysate to isolate FlagPRMT5-Mep50. Following batch binding for 3 h at 4 C, Flag resin bound to FlagPRMT5-Mep50 washed with 20 column volumes (CV) of 50 mM Tris 7.5, 200 mM NaCl, 10% glycerol, 0.25 mM TCEP followed by elution of FlagPRMT5-Mep50 complex using 3 CV of 50 mM Tris 7.5, 200 mM NaCl, 10% glycerol, 0.25 mM TCEP supplemented with 200 ug/ml of FLAG Peptide ([…]). […] Peak fractions containing FlagPRMT5-Mep50 complex were concentrated to 1.6 mg/ml, flash frozen in small aliquots using liquid nitrogen and stored at −80° C.
Regarding `Cc1ncnc2c1ccn2[C@@H]1O[C@H]([C@H](O)C(F)(F)F)[C@@H](O)[C@H]1O` [Example 56, (2R,3R,4S,5S)-2-(4-methyl-7H-pyrrolo[2,3-d]pyrimidin-7-yl)-5-((S)-2,2,2-trifluoro-1-hydroxyethyl)tetrahydrofuran-3,4-diol], half-maximal inhibition (IC50) required 11 nM.

Turning to `C[C@](O)(c1ccc(Cl)c(F)c1)[C@H]1O[C@@H](n2ccc3c(N)ncnc32)[C@H](O)[C@@H]1O` [Example 106, (2R,3R,4S,5S)-2-(4-amino-7H-pyrrolo[2,3-d]pyrimidin-7-yl)-5-((S)-1-(4-chloro-3-fluorophenyl)-1-hydroxyethyl)tetrahydrofuran-3,4-diol], the IC50 stood at 79 nM. As to `CCC[C@@H](O)[C@H]1O[C@@H](n2cnc3c(N)ncnc32)[C@H](O)[C@@H]1O` [Example 5, (2R,3R,4S,5R)-2-(6-amino-9H-purin-9-yl)-5-((R)-1-hydroxybutyl)tetrahydrofuran-3,4-diol], 159 nM corresponded to half-maximal inhibition (IC50). As for `Cc1ncnc2c1ccn2[C@@H]1O[C@H]([C@@H](O)c2cccc(F)c2)[C@@H](O)[C@H]1O` [Example 35, (2R,3S,4R,5R)-2-((S)-(3-fluorophenyl)(hydroxy)methyl)-5-(4-methyl-7H-pyrrolo[2,3-d]pyrimidin-7-yl)tetrahydrofuran-3,4-diol], the IC50 was found to be 1740 nM. The compound `CC[C@H](O)[C@H]1O[C@@H](n2cnc3c(N)ncnc32)[C@H](O)[C@@H]1O` [Example 4, (2R,3R,4S,5R)-2-(6-amino-9H-purin-9-yl)-5-((S)-1-hydroxypropyl)tetrahydrofuran-3,4-diol] displayed an IC50 of 44100 nM. In turn, `O[C@@H]1[C@H](O)[C@@H]([C@H](O)c2ccc(F)c(F)c2)O[C@H]1n1ccc2c(C(F)F)ncnc21` [Example 97, (2R,3R,4S,5R)-2-(4-(difluoromethyl)-7H-pyrrolo[2,3-d]pyrimidin-7-yl)-5-((R)-(3,4-difluorophenyl)(hydroxy)methyl)tetrahydrofuran-3,4-diol] came in with an IC50 of 30 nM.

For `CCOCc1cc([C@@H]2O[C@@H](n3ccc4c(C)ncnc43)[C@H](O)[C@@H]2O)[nH]n1` [Example 78, (2S,3S,4R,5R)-2-(3-(ethoxymethyl)-1H-pyrazol-5-yl)-5-(4-methyl-7H-pyrrolo[2,3-d]pyrimidin-7-yl)tetrahydrofuran-3,4-diol], 51100 nM corresponded to half-maximal inhibition (IC50). As for `Nc1ncnc2c([C@@H]3O[C@H]([C@H](O)c4ccc(F)cc4)[C@@H](O)[C@H]3O)scc12` [Example 102, (2R,3R,4S,5R)-2-(4-aminothieno[3,4-d]pyrimidin-7-yl)-5-((R)-(4-fluorophenyl)(hydroxy)methyl)tetrahydrofuran-3,4-diol], the IC50 was found to be 304 nM. The compound `CC[C@@H](O)[C@H]1O[C@@H](n2cnc3c(N)ncnc32)[C@H](O)[C@@H]1O` [Example 3, (2R,3R,4S,5R)-2-(6-amino-9H-purin-9-yl)-5-((R)-1-hydroxypropyl)tetrahydrofuran-3,4-diol] yielded an IC50 of 333 nM. For the compound `O[C@@H]1[C@H](O)[C@@H]([C@H](O)c2ccc(F)cc2)O[C@H]1n1ccc2c(C(F)F)ncnc21` [Example 96, (2R,3R,4S,5R)-2-(4-(difluoromethyl)-7H-pyrrolo[2,3-d]pyrimidin-7-yl)-5-((R)-(4-fluorophenyl)(hydroxy)methyl)tetrahydrofuran-3,4-diol], the IC50 worked out at 51 nM. Regarding `Cc1ncnc2c1ccn2[C@@H]1O[C@@H](C(C)(C)O)[C@@H](O)[C@H]1O` [Example 90, (2R,3S,4R,5R)-2-(2-hydroxypropan-2-yl)-5-(4-methyl-7H-pyrrolo[2,3-d]pyrimidin-7-yl)tetrahydrofuran-3,4-diol], the IC50 was found to be 3240 nM.

Take `CN[C@H](c1ccc(F)c(F)c1)[C@H]1O[C@@H](n2ccc3c(C)ncnc32)[C@H](O)[C@@H]1O` [Example 109, (2R,3S,4R,5R)-2-((R)-(3,4-difluorophenyl)(methylamino)methyl)-5-(4-methyl-7H-pyrrolo[2,3-d]pyrimidin-7-yl)tetrahydrofuran-3,4-diol]: half-maximal inhibition (IC50) was put at 4840 nM.

By IC50 is commonly meant the concentration that inhibits the measured activity by half. Read a low IC50 as greater potency in that assay.
